The values below come from US20260125360A1, “HERBICIDAL IMIDAZOLE COMPOUNDS” (SYNGENTA CROP PROTECTION AG, priority 2022, published 2026).

Molecules are shown by their SMILES.

Assay type in all cases: in vivo
Settings in all cases: 250 g/ha, evaluated after 13 days

For assay [1], the system named is Amaranthus palmeri (AMAPA). Put plainly: Post-emergence herbicide glasshouse test. In short, it runs like this: (§1)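 Species sown in standard soil and sprayed 1 day (pre-emergence) or 8 days (post-emergence) after sowing, at 250 g/ha unless noted, in acetone/water (50:50) with 0.5% Tween 20. Glasshouse at 24/16 °C day/night, 14 h light, 65% humidity. Percentage damage scored after 13 days on a 1–5 scale (5=81–100%, 1=0–20%).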

Assay [2] has as its system Amaranthus retoflexus (AMARE). Put plainly: Post-emergence herbicide glasshouse test. In short, it runs like this:
as §1

For assay [3], the system named is Echinochloa crus-galli (ECHCG). The assay is described as follows: Post-emergence herbicide glasshouse test. The gist of the method:
as §1

For assay [4], the system named is Ipomoea hederacea (IPOHE). Put plainly: Post-emergence herbicide glasshouse test. The gist of the method:
as §1

Assay [5] deals with Amaranthus palmeri (AMAPA). The assay is described as follows: Pre-emergence herbicide glasshouse test. The gist of the method:
as §1

The test system of assay [6] is Amaranthus retoflexus (AMARE). The assay is described as follows: Pre-emergence herbicide glasshouse test. In short, it runs like this: as §1
In assay [7] the test system is Echinochloa crus-galli (ECHCG). The assay is described as follows: Pre-emergence herbicide glasshouse test. In short, it runs like this:
as §1

The subject of assay [8] is Ipomoea hederacea (IPOHE). Put plainly: Pre-emergence herbicide glasshouse test. In short, it runs like this:
as §1

Consider `Cn1cnc(Cn2cc(C#N)nc2-c2ccc(F)c(F)c2)n1` [Compound 1.184], for which the “percentage damage caused to the plant, AMAPA (five-point scale)” value in assay [1] and in assay [5] was 5 (5=81-100%) each time. The “percentage damage caused to the plant, AMARE (five-point scale)” value in assay [2] and in assay [6] was 5 (5=81-100%) each time. For the same compound, the “percentage damage caused to the plant, ECHCG (five-point scale)” value in assay [3] is on record as 4 (4=61-80%); in assay [7] it was 5 (5=81-100%). The “percentage damage caused to the plant, IPOHE (five-point scale)” value in assay [4] and in assay [8] was 5 (5=81-100%) in each case.
Regarding `Cc1cc(Cn2cc(C#N)nc2-c2cnc(Cl)c(F)c2)no1` [Compound 1.185], the “percentage damage caused to the plant, AMAPA (five-point scale)” value is reported as 4 (4=61-80%) in assay [1] and 5 (5=81-100%) in assay [5]. Also, the “percentage damage caused to the plant, AMARE (five-point scale)” value was 4 (4=61-80%) in assay [2] and 5 (5=81-100%) in assay [6]. In addition, the results for the “percentage damage caused to the plant, ECHCG (five-point scale)” value in assay [3] and in assay [7] were 1 (1=0-20%) and 3 (3=41-60%), respectively. Further, the “percentage damage caused to the plant, IPOHE (five-point scale)” value in assay [4] was 3 (3=41-60%); in assay [8] it was 4 (4=61-80%).
On to `Cc1cc(Cn2cc(C(F)(F)F)nc2-c2ccc(F)c(F)c2)no1` [Compound 1.192], for which the “percentage damage caused to the plant, AMAPA (five-point scale)” value in assay [1] and in assay [5] was 5 (5=81-100%) each time. Besides, the “percentage damage caused to the plant, AMARE (five-point scale)” value in assay [2] and in assay [6] was 5 (5=81-100%) throughout. Moreover, the “percentage damage caused to the plant, ECHCG (five-point scale)” value in assay [3] and in assay [7] was 5 (5=81-100%) each time. The “percentage damage caused to the plant, IPOHE (five-point scale)” value in assay [4] and in assay [8] was 5 (5=81-100%) each time.
